Active and inactive are the calls of the source. No rule for the calls is given here.
experiment: Pre-emergence herbicidal activity against narrowleaf weed at 0.5 lb/acre; type: functional

SMILES | Activity
CC(C)C1(C)CCCc2c1cc([N+](=O)[O-])c(F)c2[N+](=O)[O-] (configuration not stated) | inactive
COc1cc(OC)c2c(c1)C(C)(C)CCC2 | inactive
COc1ccc(C(=O)O)c2c1C(C)(C)CCC2 | inactive
CC(=O)c1c(F)cc2c(c1F)CCCC2(C)C | inactive
CCCN(CCC)c1c([N+](=O)[O-])cc2c(c1[N+](=O)[O-])CCCC2(C)C | inactive
CC1(C)CCCc2c([N+](=O)[O-])cc([N+](=O)[O-])c(F)c21 | inactive
Cc1cc(C)c2c(c1)C(C)(C)CCC2 | inactive
O=[N+]([O-])c1cc2c(c([N+](=O)[O-])c1F)CCCC21CCCCC1 | inactive
COc1c([N+](=O)[O-])cc2c(c1[N+](=O)[O-])CCCC2(C)C(C)C (configuration not stated) | inactive
CCC(=O)c1c(C)cc2c(c1C)CCCC2(C)C | inactive
Cc1cc2c(c(C)c1C(=O)C(Br)(Br)Br)CCCC2(C)C | inactive
CC1(C)CCCc2cc(F)c([N+](=O)[O-])cc21 | inactive
CCCC1(CCC)CCCc2cc(F)ccc21 | inactive
CN(C)c1c([N+](=O)[O-])cc2c(c1[N+](=O)[O-])CCCC21CCCCC1 | inactive
CCCCOC(=O)c1c(C)cc2c(c1C)CCCC2(C)C | inactive
CC(=O)c1c(C)cc2c(c1C)CCCC2(C)C | inactive
COc1c([N+](=O)[O-])cc2c(c1[N+](=O)[O-])CCCC2(C)C | inactive
COc1cc2c(cc1C(=O)O)C(C)(C)CCC2 | inactive
COc1c2c(cc(F)c1C(C)=O)C(C)(C)CCC2 | inactive
CCC(CC)Nc1c([N+](=O)[O-])cc2c(c1[N+](=O)[O-])CCCC21CCCCC1 | inactive
COc1c([N+](=O)[O-])cc([N+](=O)[O-])c2c1C(C)(C)CCC2 | inactive
COC(=O)c1c(C)cc2c(c1C)CCCC2(C)C | Active
COc1ccc(C(C)=O)c2c1C(C)(C)CCC2 | inactive
CCCC1(CCC)CCCc2c1cc([N+](=O)[O-])c(NC(CC)CC)c2[N+](=O)[O-] | inactive
CC1(C)CCCc2c1cc([N+](=O)[O-])c(F)c2[N+](=O)[O-] | inactive
CCCC1(CCC)CCCc2c1cc([N+](=O)[O-])c(N(C)C)c2[N+](=O)[O-] | inactive

SMILES | Activity
CCCC1(CCC)CCCc2cc(N(C)C)c([N+](=O)[O-])cc21 | inactive
COC(=O)c1ccc(OC)c2c1CCCC2(C)C | inactive
Cc1cc2c(c(C)c1C(=O)O)CCCC2(C)C | inactive
CC1CCCc2cc(F)ccc21 (configuration not stated) | inactive
CCSc1c([N+](=O)[O-])cc2c(c1[N+](=O)[O-])CCCC2(C)C | inactive
CCNc1c([N+](=O)[O-])cc2c(c1[N+](=O)[O-])CCCC2(C)C | inactive
CC1CCCc2c1cc([N+](=O)[O-])c(F)c2[N+](=O)[O-] (configuration not stated) | inactive
CCCC1(CCC)CCCc2c1cc([N+](=O)[O-])c(F)c2[N+](=O)[O-] | inactive
CCN(CC)c1c([N+](=O)[O-])cc2c(c1[N+](=O)[O-])CCCC2(C)C | inactive
CN(C)c1cc2c(cc1[N+](=O)[O-])C(C)(C)CCC2 | inactive
Fc1ccc2c(c1)CCCC21CCCCC1 | inactive
CC(C)C1(C)CCCc2c1cc([N+](=O)[O-])c(N(C)C)c2[N+](=O)[O-] (configuration not stated) | inactive
Cc1cc2c(c(C)c1C(=O)N(C)C)CCCC2(C)C | inactive
CCOC(=O)c1c(C)cc2c(c1C)CCCC2(C)C | inactive
CC(C)c1cc(C(C)C)c2c(c1)C(C)(C)CCC2 | inactive
CN(C)c1c([N+](=O)[O-])cc([N+](=O)[O-])c2c1C(C)(C)CCC2 | inactive
COc1cc2c(cc1C(C)=O)C(C)(C)CCC2 | inactive
CC(C)C1(C)CCCc2cc(F)ccc21 (configuration not stated) | inactive
CNc1c([N+](=O)[O-])cc2c(c1[N+](=O)[O-])CCCC2(C)C | inactive
CN(C)c1c([N+](=O)[O-])cc2c(c1[N+](=O)[O-])CCCC2(C)C | inactive
CCC(CC)Nc1c([N+](=O)[O-])cc2c(c1[N+](=O)[O-])CCCC2(C)C | Active
COC(=O)c1cc2c(cc1OC)CCCC2(C)C | inactive
CCS(=O)(=O)c1c([N+](=O)[O-])cc2c(c1[N+](=O)[O-])CCCC2(C)C | inactive
CC1(C)CCCc2c(F)cc(F)cc21 | inactive
CCC(CC)Nc1c([N+](=O)[O-])cc2c(c1[N+](=O)[O-])CCCC2(C)C(C)C (configuration not stated) | inactive
CCC(CC)Nc1c([N+](=O)[O-])cc2c(c1[N+](=O)[O-])CCCC2C (configuration not stated) | inactive
